How the values were obtained:
[1] = test system: premenstrual syndrome (PMS) symptoms; test: Case reports of subjects with premenstrual syndrome taking I3C capsules; type: in vivo, human
Protocol: Capsules containing 100 to 300 mg of 1H-indole-3-methanol (I3C™ from Designed Nutritional Products, Orem, Utah, U.S.) were made by placing that amount of 1H-indole-3-methanol into gelatin capsules. Capsules containing 200 mg of 1H-indole-3-methanol (I3C™ from Designed Nutritional Products, Orem, Utah, U.S.) were made by placing that amount of 1H-indole-3-methanol into gelatin capsules. Subject A, commonly suffered from fatigue, moodiness, and bluish circles beneath their eyes prior to menstruation. During menses, which typically lasted for 7-10 days, they experienced menstrual cramping which required ibuprofen for relief. Subject A had taken I3C™ for three menstrual cycles. […] Subject B had taken I3C™ for one menstrual cycle. Their PMS symptoms prior to taking I3C™ included extreme fatigue, frequent migraine headaches, bloating, moodiness, and severe menstrual cramps. They started taking I3C™ with no knowledge of its effects or benefits. […] Subject C had been diagnosed and treated for endometriosis. Their PMS symptoms included fatigue, heavy blood flow (menorrhagia), severe menstrual cramps, and menses of approximately 10 days. Subject C had taken I3C™ for six cycles. […] Subject D, had taken I3C™ for ½ months and noticed a rapid change in their PMS symptoms.

[2] = test system: menopausal symptoms; test: Case report of a subject with menopausal symptoms taking I3C capsules; type: in vivo, human; conditions: Subject E
Protocol: Capsules containing 100 to 300 mg of 1H-indole-3-methanol (I3C™ from Designed Nutritional Products, Orem, Utah, U.S.) were made by placing that amount of 1H-indole-3-methanol into gelatin capsules. […] After the hysterectomy, Subject E had menopausal symptoms including hot flashes, occasional sweating profusion, grogginess after a full night's sleep, and almost continuous irritable bowel syndrome. Subject E started taking four 100 mg capsules of I3C™ per day, two capsules in the morning and two capsules in the late afternoon. […] Their hot flashes and excessive sweating disappeared after taking a few doses of I3C™.

[3] = Reactivity/stability of 1H-indole-3-methanol in solvent, sunlight and heat (HPLC); type: physicochemical
Protocol: Relatively pure 1H-indole-3-methanol (I3C™ from Designed Nutritional Products, Orem, Utah, U.S.) in a water solution was prepared for HPLC analysis. One sample was diluted with water and the other was diluted with methanol. […] In the course of manufacturing and formulating dietary supplements containing 1H-indole-3-methanol, it was observed that the carbinol in the three position is extremely reactive. […] In the course of heating at 60° C., 99% of the present 1H-indole-3-methanol will disappear from HPLC chromatograms, being replaced by as many as 40 or 50 different derived compounds, virtually all of them identified as containing an indole component. More detailed studies have shown that one of the first compounds to appear in a sample of 1H-indole-3-methanol undergoing heat treatment is ([…], a “dimer” of 1H-indole-3-methanol.

[4] = Subject C, endometriosis, six cycles

Q: For OCc1c[nH]c2ccccc12 [I3C™, 1H-indole-3-methanol], which “PMS symptoms (fatigue, moodiness, bluish circles beneath eyes, menstrual cramping)” value ([1]; Subject A, I3C taken for three menstrual cycles) is on record?
A: the above symptoms were alleviated

Q: What about the duration of menses ([1]; Subject A, three menstrual cycles, typically 7-10 days before) of the same molecule?
A: approximately 4 days

Q: And the “PMS symptoms (extreme fatigue, migraine headaches, bloating, moodiness, severe menstrual cramps)” value ([1]; Subject B, within one menstrual cycle)?
A: experienced only mild fatigue and their remaining symptoms were alleviated

Q: What about the fatigue ([1]; Subject C, endometriosis, I3C taken for six cycles) of the same molecule?
A: ceased

Q: And the menstrual blood flow [1, 4]?
A: decreased substantially

Q: And the “severity of menstrual cramps” value [1, 4]?
A: decreased

Q: And the “PMS symptoms after starting I3C again” value ([1]; Subject C, restart after withdrawal)?
A: their symptoms were alleviated

Q: What about the duration of menses ([1]; Subject C, six cycles, approximately 10 days before) of the same molecule?
A: approximately 5 days

Q: And the “PMS symptoms after stopping I3C for one menstrual cycle” value ([1]; Subject C, withdrawal for one cycle)?
A: previous PMS symptoms returned

Q: What about the “PMS symptoms (bloating, headaches)” value ([1]; Subject D, I3C taken for ½ months) of the same molecule?
A: less bloating and reduced headaches

Q: What about the “bowel, sleep and energy symptoms” value ([2]; four 100 mg capsules per day for one month) of the same molecule?
A: bowel regularity, less sleep disturbances, and a steady energy level throughout the day

Q: What about the “hot flashes and excessive sweating” value ([2]; partial hysterectomy, four 100 mg capsules per day, after a few doses) of the same molecule?
A: disappeared

Q: And the “1H-indole-3-methanol disappearing from HPLC chromatograms on heating” value ([3]; heating at 60° C.)?
A: 99%

Q: What about the “stability in the presence of sunlight” value ([3]; sunlight) of the same molecule?
A: change color in just a few hours

Q: And the “HPLC peaks after dilution with methanol (reaction to methyl ether)” value ([3]; water solution diluted with methanol, by the time of injection)?
A: two peaks of about the same magnitude

Q: And the “HPLC peaks after dilution with water” value ([3]; water solution diluted with water)?
A: only one peak

— US6613792B1, “Treatment of premenstrual syndrome and menopause” (Designed Nutritional Products, Inc., priority 1999, dated 2003)
